# Test results published in patent US10227329B2, “Compounds useful for treating disorders related to RET” (BLUEPRINT MEDICINES CORPORATION, priority 2016, dated 2019).
# Assays:
# [1] = target: wild type RET (Homo sapiens (Human), UniProt P07949); test: RET Wild Type Assay at KM (Caliper electrophoretic mobility shift); type: biochemical; details: 25 μM ATP (KM)
# [2] = target: RET V804L (Homo sapiens (Human), UniProt P07949, V804L); test: RET V804L Gatekeeper Mutant Assay at KM (Caliper electrophoretic mobility shift); type: biochemical; details: 10 μM ATP (KM), read-out: V480L Mutant
# RET V804L, sequence (P07949 29-1114 V804L): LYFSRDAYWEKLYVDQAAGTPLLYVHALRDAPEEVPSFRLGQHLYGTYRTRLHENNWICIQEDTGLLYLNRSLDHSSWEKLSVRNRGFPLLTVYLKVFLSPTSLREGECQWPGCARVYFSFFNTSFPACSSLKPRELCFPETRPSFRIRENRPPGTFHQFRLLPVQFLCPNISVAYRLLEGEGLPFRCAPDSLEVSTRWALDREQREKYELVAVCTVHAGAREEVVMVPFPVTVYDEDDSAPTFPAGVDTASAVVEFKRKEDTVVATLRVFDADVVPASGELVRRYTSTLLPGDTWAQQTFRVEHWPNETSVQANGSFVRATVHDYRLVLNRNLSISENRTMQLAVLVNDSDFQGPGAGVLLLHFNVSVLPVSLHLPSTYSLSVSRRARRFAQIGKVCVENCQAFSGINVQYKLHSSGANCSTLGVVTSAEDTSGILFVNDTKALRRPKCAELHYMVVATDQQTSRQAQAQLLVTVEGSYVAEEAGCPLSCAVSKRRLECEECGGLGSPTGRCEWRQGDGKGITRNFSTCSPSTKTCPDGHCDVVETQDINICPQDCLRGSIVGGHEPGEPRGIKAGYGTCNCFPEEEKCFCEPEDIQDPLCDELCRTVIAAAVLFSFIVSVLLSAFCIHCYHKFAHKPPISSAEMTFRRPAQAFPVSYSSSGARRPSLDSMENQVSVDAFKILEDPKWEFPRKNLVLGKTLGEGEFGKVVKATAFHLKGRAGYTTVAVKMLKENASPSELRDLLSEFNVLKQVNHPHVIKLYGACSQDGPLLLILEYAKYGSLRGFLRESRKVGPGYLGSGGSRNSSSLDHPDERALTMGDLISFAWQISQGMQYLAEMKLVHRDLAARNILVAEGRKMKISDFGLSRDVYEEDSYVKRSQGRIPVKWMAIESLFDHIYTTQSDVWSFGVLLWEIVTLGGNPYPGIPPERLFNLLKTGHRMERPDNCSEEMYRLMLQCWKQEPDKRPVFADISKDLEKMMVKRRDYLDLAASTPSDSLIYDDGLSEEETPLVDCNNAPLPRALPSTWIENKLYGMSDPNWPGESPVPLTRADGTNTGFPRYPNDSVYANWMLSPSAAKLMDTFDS
# wild type RET, sequence (P07949 29-1114): as the sequence (P07949 29-1114 V804L) above, with L776V counted along it
Compound,IC50 [1] [nM],IC50 [2] [nM]
Cc1cc(Nc2cc(C)[nH]n2)nc(N2CCC(C(=O)NCc3ccccc3)CC2)n1 [Compound 100],> 100,10 to 100
Cc1cc(Nc2cc(C)[nH]n2)nc(N2CCC(C)(C(=O)NCc3ccccc3)CC2)n1 [Compound 101],10 to 100,10 to 100
COC1(C(=O)NCc2ccccc2)CCN(c2nc(C)cc(Nc3cc(C)[nH]n3)n2)CC1 [Compound 104],> 100,10 to 100
COc1ccc([C@H](C)NC(=O)C2(O)CCN(c3nc(C)cc(Nc4cc(C)[nH]n4)n3)CC2)cc1 [Compound 116],> 100,10 to 100
Cc1cc(Nc2cc(C)[nH]n2)nc(N2CC(C(=O)N[C@@H](C)c3ccc(-n4cc(F)cn4)nc3)C2)c1 [Compound 119],< 10,< 10
Cc1cc(Nc2cc(C)[nH]n2)nc(N2CC(C(=O)N[C@@H](C)c3ccc(-n4cc(F)cn4)nc3)C2)n1 [Compound 121],< 10,< 10
Cc1cc(Nc2cc(C)[nH]n2)nc(N2CC(F)(C(=O)N[C@@H](C)c3ccc(-n4cccn4)nc3)C2)n1 [Compound 122],< 10,< 10
COc1ccc([C@H](C)NC(=O)C2(OC)CCN(c3nc(C)cc(Nc4cc(C)[nH]n4)n3)CC2)cc1 [Compound 123],10 to 100,10 to 100
Cc1cc(Nc2cc(C)[nH]n2)nc(N2CC(F)(C(=O)NCc3ccc(-n4cc(F)cn4)nc3)C2)n1 [Compound 124],< 10,< 10
COC1(C(=O)NCc2ccc(N3CC(F)C3)nc2)CN(c2nc(C)cc(Nc3cc(C)[nH]n3)n2)C1 [Compound 125],> 100,> 100
Cc1cc(Nc2cc(C)[nH]n2)nc(N2CC(C#N)(C(=O)N[C@@H](C)c3ccc(-n4cccn4)nc3)C2)n1 [Compound 126],< 10,< 10
CCC1(C(=O)N[C@@H](C)c2ccc(-n3cccn3)nc2)CN(c2nc(C)cc(Nc3cc(C)[nH]n3)n2)C1 [Compound 130],< 10,< 10
COC1(C(=O)NCc2ccc(-n3ccc(C)n3)nc2)CN(c2nc(C)cc(Nc3cc(C)[nH]n3)n2)C1 [Compound 137],< 10,< 10
COC1(C(=O)NCc2ccc(-n3cc(C)cn3)nc2)CN(c2nc(C)cc(Nc3cc(C)[nH]n3)n2)C1 [Compound 138],10 to 100,< 10
Cc1cc(Nc2cc(C)[nH]n2)nc(N2CC(C)(C(=O)N[C@@H](C)c3ccc(-n4cc(F)cn4)nc3)C2)c1 [Compound 139],< 10,< 10
Cc1cc(Nc2cc(C)[nH]n2)nc(N2CC(C(=O)N(C)[C@@H](C)c3ccc(-n4cc(F)cn4)nc3)C2)c1 [Compound 140],< 10,< 10
Cc1cc(Nc2cc(C)[nH]n2)nc(N2CC(C(=O)N(C)[C@@H](C)c3ccc(-n4cc(F)cn4)nc3)C2)n1 [Compound 142],< 10,< 10
Cc1cc(Nc2cc(C)[nH]n2)nc(N2C[C@@H](C(=O)N[C@@H](C)c3ccc(-n4cc(F)cn4)nc3)[C@@H]2C)n1 [Compound 143],< 10,< 10
Cc1cc(Nc2cc(C)[nH]n2)nc(N2C[C@H](C(=O)N[C@@H](C)c3ccc(-n4cc(F)cn4)nc3)[C@H]2C)n1 [Compound 144],< 10,< 10
Cc1cc(Nc2cc(C)[nH]n2)nc(N2CC(O)(C(=O)N[C@@H](C)c3ccc(-n4cc(F)cn4)nc3)C2)c1 [Compound 145],< 10,< 10
COC1(C(=O)N[C@@H]2CCN(c3ccccn3)C2)CCN(c2nc(C)cc(Nc3cc(C)[nH]n3)n2)CC1 [Compound 147],10 to 100,10 to 100
COC1(C(=O)NCc2ccc(-n3cc(F)cn3)nc2)CN(c2nc(C)cc(Nc3cc(C)[nH]n3)n2)C1 [Compound 148],< 10,< 10
COC1(C(=O)N[C@@H](C)c2ccc(-n3cc(F)cn3)nc2)CN(c2nccc(Nc3cc(C)[nH]n3)n2)C1 [Compound 149],< 10,< 10
COC1(C(=O)NCc2ccc(-n3cc(F)cn3)nn2)CN(c2nc(C)cc(Nc3cc(C)[nH]n3)n2)C1 [Compound 150],10 to 100,10 to 100
Cc1cc(Nc2cc(C)[nH]n2)nc(N2CC(F)(C(=O)N[C@@H](C)c3ccc(-n4cc(F)cn4)nc3)C2)c1 [Compound 151],< 10,< 10
Cc1cc(Nc2cc(C)c(F)c(N3CC(C(=O)N[C@@H](C)c4ccc(-n5cc(F)cn5)nc4)C3)n2)n[nH]1 [Compound 152],< 10,< 10
Cc1cc(Nc2cc(C)[nH]n2)nc(N2CC(F)(C(=O)N[C@@H](C)c3ccc(-n4cc(F)cn4)nc3)C2)n1 [Compound 153],< 10,< 10
COC1(C(=O)NCc2ccc(N3CC[C@H](F)C3)nc2)CN(c2nc(C)cc(Nc3cc(C)[nH]n3)n2)C1 [Compound 154],> 100,> 100
COC1(C(=O)NCc2ccc(N3CC[C@@H](F)C3)nc2)CN(c2nc(C)cc(Nc3cc(C)[nH]n3)n2)C1 [Compound 155],> 100,10 to 100
Cc1cc(Nc2cc(C)c(C#N)c(N3CC(F)(C(=O)N[C@@H](C)c4ccc(-n5cccn5)nc4)C3)n2)n[nH]1 [Compound 157],< 10,< 10

# Further lines, results first:
IC50 [1] [nM],IC50 [2] [nM],Compound
> 100,10 to 100,Cc1cc(Nc2cc(C)[nH]n2)nc(N2CCC(O)(C(=O)NCc3ccccc3)CC2)c1 [Compound 102]
> 100,> 100,Cc1cc(Nc2cc(C)[nH]n2)nc(N2CCC(O)(C(=O)NCc3ccccc3)CC2)n1 [Compound 103]
10 to 100,10 to 100,COc1ccc(CNC(=O)C2(O)CCN(c3cc(C)cc(Nc4cc(C)[nH]n4)n3)CC2)cc1 [Compound 105]
> 100,10 to 100,COc1ccc(CNC(=O)C2(O)CCN(c3nc(C)cc(Nc4cc(C)[nH]n4)n3)CC2)cc1 [Compound 106]
< 10,< 10,"Cc1cc(Nc2cc(C)[nH]n2)nc(N2CC(C)(C(=O)NCc3ccc(-n4cccn4)nc3)C2)c1 [Compound 107, N-((6-(1H-pyrazol-1-yl)pyridin-3-yl)methyl)-3-methyl-1-(4-methyl-6-((5-methyl-1H-pyrazol-3-yl)amino)pyridin-2-yl)azetidine-3-carboxamide]"
10 to 100,< 10,Cc1cc(Nc2cc(C)[nH]n2)nc(N2CC(O)(C(=O)NCc3ccc(-n4cccn4)nc3)C2)c1 [Compound 110]
< 10,< 10,Cc1cc(Nc2cc(C)[nH]n2)nc(N2CC(F)(C(=O)NCc3ccc(-n4cccn4)nc3)C2)c1 [Compound 111]
< 10,< 10,Cc1cc(Nc2cc(C)[nH]n2)nc(N2CC(F)(C(=O)NCc3ccc(-n4cccn4)nc3)C2)n1 [Compound 112]
10 to 100,< 10,CCOc1ccc(CNC(=O)C2(O)CCN(c3cc(C)cc(Nc4cc(C)[nH]n4)n3)CC2)cc1 [Compound 113]
10 to 100,10 to 100,COc1ccc([C@H](C)NC(=O)C2(O)CCN(c3cc(C)cc(Nc4cc(C)[nH]n4)n3)CC2)cc1 [Compound 114]
10 to 100,10 to 100,CCOc1ccc(CNC(=O)C2(O)CCN(c3nc(C)cc(Nc4cc(C)[nH]n4)n3)CC2)cc1 [Compound 115]
< 10,< 10,Cc1cc(Nc2cc(C)[nH]n2)nc(N2CC(C)(C(=O)N[C@@H](C)c3ccc(-n4cccn4)nc3)C2)c1 [Compound 117]
< 10,< 10,Cc1cc(Nc2cc(C)[nH]n2)nc(N2CCC(C(=O)NCc3ccc(-n4cccn4)nc3)CC2)n1 [Compound 118]
< 10,< 10,Cc1cc(Nc2cc(C)[nH]n2)nc(N2CC(C)(C(=O)NCc3ccc(-n4cc(F)cn4)nc3)C2)c1 [Compound 120]
< 10,< 10,Cc1cc(Nc2cc(C)[nH]n2)nc(N2CCC(C)(C(=O)NCc3ccc(-n4cccn4)nc3)CC2)c1 [Compound 127]
< 10,< 10,Cc1cc(Nc2cc(C)c(C#N)c(N3CC(F)(C(=O)NCc4ccc(-n5cccn5)nc4)C3)n2)n[nH]1 [Compound 128]
< 10,< 10,Cc1cc(Nc2cc(C)[nH]n2)nc(N2CCC(C)(C(=O)NCc3ccc(-n4cccn4)nc3)CC2)n1 [Compound 129]
< 10,< 10,Cc1cc(Nc2cc(C)[nH]n2)nc(N2CCC(O)(C(=O)NCc3ccc(-n4cccn4)nc3)CC2)c1 [Compound 131]
< 10,< 10,Cc1cc(Nc2cc(C)[nH]n2)nc(N2CC[C@H](C(=O)NCc3ccc(-n4cccn4)nc3)[C@@H](O)C2)c1 [Compound 132]
< 10,< 10,Cc1cc(Nc2cc(C)[nH]n2)nc(N2CC[C@@H](C(=O)NCc3ccc(-n4cccn4)nc3)[C@H](O)C2)c1 [Compound 133]
< 10,< 10,Cc1cc(Nc2cc(C)[nH]n2)nc(N2CC[C@@H](C(=O)NCc3ccc(-n4cccn4)nc3)[C@@H](O)C2)c1 [Compound 134]
10 to 100,10 to 100,Cc1cc(Nc2cc(C)[nH]n2)nc(N2CC[C@H](C(=O)NCc3ccc(-n4cccn4)nc3)[C@H](O)C2)c1 [Compound 135]
< 10,< 10,"Cc1cc(Nc2cc(C)[nH]n2)nc(N2CCC(O)(C(=O)NCc3ccc(-n4cccn4)nc3)CC2)n1 [Compound 136, N-((6-(1H-pyrazol-1-yl)pyridin-3-yl)methyl)-4-hydroxy-1-(4-methyl-6-(3-methyl-1H-pyrazol-5-ylamino)pyrimidin-2-yl)piperidine-4-carboxamide]"
< 10,< 10,Cc1cc(Nc2cc(C)[nH]n2)nc(N2CCC(F)(C(=O)NCc3ccc(-n4cccn4)nc3)CC2)n1 [Compound 141]
< 10,< 10,COC1(C(=O)NCc2ccc(-n3cccn3)nc2)CN(c2nc(Nc3cc(C)[nH]n3)cc(C)c2F)C1 [Compound 146]
< 10,< 10,COC1(C(=O)NCc2ccc(-n3cccn3)nc2)CN(c2nc(Nc3cc(C)[nH]n3)cc(C)c2C#N)C1 [Compound 156]
